According to patent publication US6867192B1, “Compounds useful in the treatment of inflammatory diseases” (priority 1998, dated 2005):
Like-named read-outs stand apart in the source and are kept apart here.

Assays:
[1] = tested on: ovalbumin sensitised guinea pigs; assay: Inhibition of eosinophil infiltration and hyper-reactivity in the guinea pig; type: in vivo; conditions: Cavia porcellus, Eosinophil, inhaled or nasal, 24 h, 0.5 hours before and 6 hours after antigen challenge; for inhibition in vivo at 0.0002 mg/kg: intratracheal dose 0.2 μg/kg body weight; for inhibition in vivo at 0.002 mg/kg: intratracheal dose 2 μg/kg body weight
Method: (3) Inhibition of Eosinophil Infiltration and Hyper-Reactivity in the Guinea Pig
In a method based on that described by Danahay et al., 1997, ovalbumin sensitised guinea pigs were dosed with mepyramine (30 mg kg^−1 ip) to protect against anaphylactic bronchospasm. Test compounds, dissolved in 0.9% saline, were given by the inhaled route (30 minutes breathing of an aerosol of the compound) or the intra-tracheal route, 30 minutes before and 6 hours after ovalbumin challenge (10 minutes breathing of an aerosol generated from a 0.5% solution of ovalbumin). Hyper-reactivity of the airways to the thromboxane mimetic U46619, was measured 24 hours after ovalbumin challenge in un-restrained animals using a whole body plethysmograph (Buxco Ltd., USA). The guinea pigs were then sacrificed and the lungs lavaged. Total and differential leukocyte counts were then obtained for the bronchoalveolar lavage fluid and the percentage reduction in eosinophil accumulation determined (Sanjar et al., 1992). Dexamethasone (200 μg kg^−1 i.t) was used as a positive control. Data was presented as the inhibitory effect of the specified dose expressed as a percentage of the vehicle control response.

CD4+ T-cells = assay: CD3/VCAM-1 co-stimulation of T-lymphocyte proliferation; type: cell-based; conditions: T-cell; [3H] thymidine incorporation, 4 days incubation, anti-CD3/zzVCAM-1 coated plates
Method: (2) CD3/VCAM-1 Co-stimulation of T-Lymphocyte Proliferation
CD4^+ T-cells were purified from peripheral blood mononuclear cells by negative selection with anti-CD14, CD19, CD16 and HLA.DR antibodies and Dynal beads. Flat bottomed 96-well tissue culture plates were coated with 1 μg ml^−1 anti-CD3 antibody (OKT3), washed and incubated with human IgG and zzVCAM-1 fusion proteins. The CD4^+ T cells (prepared in RPMI-1640 medium supplemented with 10% FCS, penicillin or streptomycin and L-glutamine) were added to the coated plates (1×10^5 cells well^−1) and incubated in the presence or absence of various doses of compound or blocking antibodies for 4 days. Radiolabelled thymidine [^3H] was added for the final 6 hours of incubation and the cells were then harvested using a Skatron plate harvester. Incorporation of the [^3H] label was measured as an indicator of T cell proliferation using a β plate counter. Compounds were assayed in triplicate and data was collected in an analogous procedure to that described for Assay (1).

[2] = airway hyper-reactivity to U46619, read-out: % Inhibition Hyper-reactivity
[3] = read-out: % Inhibition Eosinophil Accumulation

Row | Structure (SMILES) | inhibition in vivo at 0.0002 mg/kg [1, 2] | inhibition in vivo at 0.0002 mg/kg [1, 3] | inhibition in vivo at 0.002 mg/kg [1, 2] | inhibition in vivo at 0.002 mg/kg [1, 3] | IC50 (CD4+ T-cells)
1 | CC(=O)N1CCN(C(=O)Oc2ccc(C[C@H](NC(=O)[C@H](CC(C)C)NC(=O)COc3ccccc3C(C)(C)C)C(=O)O)cc2)CC1 [Example 16, (2S)-3-(4-{[(4-Acetyl-1-piperazinyl)carbonyl]oxy}phenyl)-2-{[(2S)-2-({2-[2-(tert-butyl)phenoxy]acetyl}amino)-4-methylpentanoyl]amino}propanoic acid] | 80% | 62% | 95% | 78% | 0.0398 µM
2 | CC(=O)N1CCN(C(=O)Oc2ccc(C[C@H](NC(=O)[C@H](CC(C)C)NC(=O)COc3ccccc3C)C(=O)O)cc2)CC1 [Example 17, (2S)-3-(4-{[(4-Acetyl-1-piperazinyl)carbonyl]oxy}phenyl)-2-[((2S)-4-methyl-2-{[2-(2-methylphenoxy)acetyl]amino}pentanoyl)amino]propanoic acid] | 58% | 68% | 88% | 61% | 0.0316 µM
3 | CC(C)C[C@H](NC(=O)COc1ccccc1C(C)(C)C)C(=O)N[C@@H](Cc1ccc(OC(=O)N2CCN(C(=O)c3ccccc3)CC2)cc1)C(=O)O [Example 20, (2S)-3-(4-{[(4-Benzoyl-1-piperazinyl)carbonyl]oxy}phenyl)-2-{[(2S)-2-({2-[2-(tert-butyl)phenoxy]acetyl}amino)-4-methylpentanoyl]amino}propanoic acid] | 85% | 67% | 100% | 79% | 0.126 µM
4 | Cc1ccccc1OCC(=O)N[C@@H](CC(C)C)C(=O)N[C@@H](Cc1ccc(OC(=O)N2CCN(C(=O)c3ccccc3)CC2)cc1)C(=O)O [Example 21, (2S)-3-(4-{[(4-Benzoyl-1-piperazinyl)carbonyl]oxy}phenyl)-2-[((2S)-4-methyl-2-{[2-(2-methylphenoxy)acetyl]amino}pentanoyl)amino]propanoic acid] | 82% | 49% | 85% | 79% | 0.126 µM
5 | CC(C)C[C@H](NC(=O)COc1ccccc1I)C(=O)N[C@@H](Cc1ccc(OC(=O)N2CCOCC2)cc1)C(=O)O [Example 23, (2S)-2-[((2S)-2-{[2-(2-Iodophenoxy)acetyl]amino}-4-methylpentanoyl)amino]-3-{4-[(4-morpholinylcarbonyl)oxy]phenyl}propanoic acid] |  |  | 79% | 51% | 0.126 µM
6 | CC(C)C[C@H](NC(=O)COc1ccccc1C(C)(C)C)C(=O)N[C@@H](Cc1ccc(OC(=O)N2CCOCC2)cc1)C(=O)O [Example 24, (2S)-2-{[(2S)-2-({2-[2-(Tert-butyl)phenoxy]acetyl}amino)-4-methylpentanoyl]amino}-3-{4-[(4-morpholinylcarbonyl)oxy]phenyl}propanoic acid] | 44% | 26% | 85% | 77% | 0.0794 µM
7 | Cc1ccccc1OCC(=O)N[C@@H](CC(C)C)C(=O)N[C@@H](Cc1ccc(OC(=O)N2CCC(C(N)=O)CC2)cc1)C(=O)O [Example 27, (2S)-3-[4-({[4-(Aminocarbonyl)-1-piperidinyl]carbonyl}oxy)phenyl]-2-[((2S)-4-methyl-2-{[2-(2-methylphenoxy)acetyl]amino}pentanoyl)amino]propanoic acid] | 88% | 58% | 87% | 90% | 0.0316 µM
8 | CC(C)C[C@H](NC(=O)c1cccc2c1oc1ccccc12)C(=O)N[C@@H](Cc1ccc(OC(=O)N2CCC(C(N)=O)CC2)cc1)C(=O)O [Example 28, (2S)-3-[4-({[4-(Aminocarbonyl)-1-piperidinyl]carbonyl}oxy)phenyl]-2-({(2S)-2-[(dibenzo[b,d]furan-4-ylcarbonyl)amino]-4-methylpentanoyl}amino)propanoic acid] | 70% | 3% | 47% | 62% | 0.158 µM
